Measured values: a melting point compilation (Tetko et al.; mined from patent text by program, amines drawn as free bases though some values may be those of a salt)

| SMILES | melting point |
| --- | --- |
| CCOC(=O)CC(NC(=O)c1cccc(NC(=O)c2csc(NC(=N)N)n2)c1)c1ccccc1 (racemic) | 117 °C |
| CCOC(=O)N(CC(=O)O)C(=O)c1c(F)ccc2c(C(F)(F)F)c(OC)ccc12 | 136 to 138 °C |
| CC(C)(C)C(=O)N1C(=O)C(C)(C)NC(C)(C)C1=O | 100 to 102 °C |
| CCCCCCCOc1ccc(COc2ccc(-c3ccc(OC(C)CCCCCC)cc3)cc2)cc1 (configuration not stated) | 98.1 °C |
| ClCCCOc1ccc(-c2nc3ccccc3s2)cc1 | 141 to 143 °C |
| Cc1cn2nc(-c3ccccc3)nc2cc1C(=O)O | 228 to 233 °C |
| CN1Cc2c(C#N)ncn2-c2ccc(F)cc2C1=O | 236 to 237 °C |
| CC(=O)Nc1ccc(OCCCN2C(=O)c3ccccc3C2=O)cc1 | 154 to 156 °C |
| COC(=O)c1ccc(C2=NC(C)(C)Cc3cc(OC)c4c(c32)CC(C)(C)O4)cc1N | 161 to 162 °C |
| Cc1cc(CC(=O)O)ccc1NC(=O)Nc1ccccc1C(F)(F)F | 262 to 263 °C |
| Nc1ncnc2c1c(-c1ccc(Oc3ccccc3)cc1)cn2CC(=O)NCCN1CCNCC1 | 138 to 140 °C |
| O=C(O)c1nccn1C(c1ccccc1)c1ccccc1 | 191 °C |
| O=C(NCCl)Oc1cccc(Cl)c1 | 90 °C |
| CC(C)(C)c1cc(Oc2ccc(Br)cc2)cc(C(C)(C)C)c1 | 98 to 100 °C |
| CS(=O)c1cccc(NC(=O)NCC(=O)N(CC(=O)N2CCCc3ccccc32)c2ccccc2)c1 (racemic) | 140 °C |
| O=C(Nc1ccc(SCCCCCCCCCCCCC(Cl)(Cl)C(=O)O)cc1)c1ccc(Cl)cc1 | 167 to 168 °C |
| Cc1cccc(-c2n[nH]cc2-c2ccc(F)c(-c3ccc(S(=O)(=O)C(F)F)cc3)c2)n1 | 80 to 82 °C |
| CCCOc1ccc(S(=O)(=O)N2CC(CN(C)C)C2)cc1-c1nc2c([nH]1)c1nncn1c(=O)n2CCC | 172 °C |
| Cc1sc(-c2cnc3ccccc3c2)nc1O | 279 to 280 °C |

| SMILES | melting point |
| --- | --- |
| NC(=O)c1cn([C@@H](CO)CCn2ccc3ccccc32)cn1 | 127 to 130 °C |
| Nc1cccc2c1CC=CC2 | 37 to 39 °C |
| Cc1ccc(C2SCC(=O)CS2)cc1 | 112 to 113 °C |
| Cc1sc(-c2ccccc2)nc1CCC(=O)c1ccc(CC2SC(=O)NC2=O)s1 (configuration not stated) | 164 to 166 °C |
| C[C@H](C(=O)c1ccccc1F)n1ccn(-c2ccc(OCC(F)(F)C(F)F)cc2)c1=O | 71 to 73 °C |
| CNC(=O)N1C2c3ccccc3OCC2(C(=O)OC)CN1C(=O)Nc1ccc(C(F)(F)F)cc1 (configuration not stated) | 208 to 209 °C |
| O=C1Nc2cccnc2N(C(=O)NCCN2CCCCC2CNCC2CCCC2)c2ccccc21 (configuration not stated) | 157 to 158 °C |
| Cc1ccccc1-c1ccc(C(=O)N2Cc3ccc(C(=O)NCc4ccc5c(c4)OCO5)n3Cc3ccccc32)cc1C | 149 to 151 °C |
| CCNC1CCc2[nH]c3ccccc3c2C1 (configuration not stated) | 128 to 129 °C |
| Cn1c(=N)sc2cc(OC(F)(F)F)ccc21 | 60 to 62 °C |
| Cc1c(NC(=O)c2ccc(-c3ccc(F)cc3)cc2)ccc2cc(C(O)c3ccccc3)cnc12 (configuration not stated) | 182 to 186 °C |
| CC(=O)C(=O)N[C@H](CO[N+](=O)[O-])Cc1ccccc1 | 72 to 75 °C |
| O=C1CCc2cc(-c3ccccc3)ccc21 | 75 °C |
| CCOC(=O)COc1c(Br)cc(-c2cccc3sc4ccccc4c23)cc1Br | 140 to 142 °C |
| COc1cc(C=O)ccc1OCCCl | 60 to 61 °C |
| CCN(C(=O)N1CCN(c2cc(C)cc(C)c2)CC1)c1cc(C)c(C)cc1OC | 80 to 82 °C |
| Cc1cc2cc(OCC(=O)O)c(Cl)c(Cl)c2s1 | 215 to 216 °C |
| CC(C)(C)C(=O)c1ccc(C(=O)NC(=O)c2ccccc2)cc1 | 121 to 123 °C |
| O=c1c(C(F)(F)F)cn(C2CC(O)C(COCc3ccccc3)O2)c(=O)n1C1CCCO1 (configuration not stated) | 145 to 147 °C |

| SMILES | melting point |
| --- | --- |
| N#CC(=O)c1cccc(Cl)c1 | 146 to 148 °C |
| O=C(O)Cc1cccc(F)c1OCCc1ccccc1 | 74 to 75 °C |
| COC(=O)C1CNC(CCc2ccccc2)=N1 (racemic) | 136 to 141 °C |
| Nc1nc(OCC2CC2)c2ncn(C3CC(F)C(CO)O3)c2n1 (configuration not stated) | 80 to 81 °C |
| O=C(NOC(=O)Oc1ccccc1)Oc1ccccc1 | 80 to 82 °C |
| CCOC1(c2nc3ccccc3s2)C=CC(=O)C=C1 | 59 °C |
| O=C(NCCO)c1cccc(-c2ccc3c(n2)N(c2ccc(Cl)cc2Cl)CC3)c1 | 168 to 169 °C |
| O=C(O)CC[C@H](NC(=O)Nc1ccc(N(CCCl)CCCl)cc1)C(=O)O | 116 to 118 °C |
| OCn1c2ccccc2c2ccccc21 | 127 to 129 °C |
| Nc1ccc(-c2nc(-c3ccco3)no2)cc1 | 183 to 185 °C |
| Cc1cccc(-c2nc3ccc(OCCN4CCN(C)CC4)cc3n2Cc2ccccc2)c1 | 91 °C |
| Cc1cc(-c2nc3cccnn3c2-c2ccnc(NC(=O)Nc3cccnc3)c2)ccc1F | 233 to 234 °C |
| O=c1c(Cl)cc2nc3ccc(F)cc3sc-2c1Cl | 256 to 258 °C |
| Oc1cccc2c1CC1CNCC2C1 (configuration not stated) | 106 to 108 °C |
| CCCCCCCCCCCCc1ccccc1C(SCCCC(=O)O)C(=O)O (configuration not stated) | 58 to 59 °C |
| CS[C@@H]1CC(=O)N(Cc2ccc(Oc3ccc(F)cc3)nc2)C1 | 94 to 95 °C |
| Fc1ccc(-c2cc(Cl)c3cc(F)ccc3n2)cc1 | 130 to 133 °C |
| CN1CCN(C2=Nc3ccccc3Nc3c(Cl)cccc32)CC1 | 168 to 170 °C |

Results, then the compound that gave them:

| melting point | SMILES |
| --- | --- |
| 107 to 108 °C | CCCCCCCCCCCCC1(C(C(=O)Nc2c(C(C)C)cccc2C(C)C)c2ccccc2)C=CNO1 (configuration not stated) |
| 125 to 127 °C | CCOC(=O)c1c2ccc(Cl)cc2c(-c2ccccc2)n1CCOS(C)(=O)=O |
| 130 to 140 °C | CCCCCCCCCCCCCCCC(=O)NC(Cc1cc(CP(=O)(O)O)cc(-c2ccccc2)c1)C(=O)O (configuration not stated) |
| 72 to 74 °C | CC(=O)CCCCCCCC(=O)c1ccc(OCc2ccccc2)c(OCc2ccccc2)c1 |
| 118 to 119 °C | O=C(OC1C(=O)NC1c1ccccc1)c1ccccc1 (configuration not stated) |
| 214 to 217 °C | CC(C)n1nc(-c2nc(N)cnc2-c2ccccc2)ccc1=O |
| 96 to 97 °C | COC(=O)c1cc(-c2ccc(F)cc2)oc1C |
| 254 to 256 °C | NC(=O)c1ccc(N2CCN(Cc3cn4cc(Cl)ccc4n3)CC2)c(Cl)c1 |
| 83 °C | CN(C)CCN(C)C(=O)[C@H]1CC[C@H](N(C)S(=O)(=O)c2ccc(C(F)(F)F)cc2)CC1 |
| 235 to 237 °C | O=C(c1cccs1)c1cnn2c(-c3cccc(F)c3)ccnc12 |
| 117 to 119 °C | C=Cc1ccc(CCOC(=O)CC(C)NC(N)=O)cc1 (configuration not stated) |
| 305 to 306 °C | O=C(O)CCCOc1ccc(N2CCN(c3ccncc3)CC2)cc1 |
| 150 to 154 °C | COc1ccc(CCCOc2ccc(C(=O)O)cc2)cc1OC |
| 176 to 178 °C | COc1ccc(-c2cc(=Nc3c(C)cc(C)cc3C)n(C)c(=O)n2C)cc1N |
| 70 to 71 °C | CC1CCC(C(C)C)C(OC2C=CC(=O)O2)C1 (configuration not stated) |
| 125 to 128 °C | O=C(c1ccn2c1CSC2c1cccnc1)c1c[nH]c2cc(-c3ncccn3)ccc12 (configuration not stated) |
| 251 °C | COc1ccc(C(=O)c2ccc3cc(C(=O)c4ccc(OC)cc4)ccc3c2)cc1 |
| 61 to 64 °C | CCOCc1nc2c(N)nc3ccccc3c2n1CCOCCCS(=O)(=O)N(C)C |
| 73 to 74 °C | C#CCC(CCc1ccccc1)(C(N)=S)c1cccnc1 (configuration not stated) |
| 233 to 235 °C | Oc1cc2ncnc(Nc3cccc(Cl)c3)c2cc1O |
| 238 to 240 °C | CNC(=O)c1ccccc1Nc1nc(Nc2ccc3c(c2)CCCC(=O)N3C)ncc1Br |
| 322 to 325 °C | CCc1cc2[nH]c(=O)cc(O)c2c(CC)n1 |
| 172 to 173 °C | CCCc1c(OC(=S)N(C)C)ccc2c(C)c(CC(=O)OC)c(=O)oc12 |

| melting point | SMILES |
| --- | --- |
| 100 to 101 °C | Cc1nccn1-c1nc(-c2ccc(Cl)cc2)c(CCCCOS(C)(=O)=O)o1 |
| 115 °C | [O-][N+](=Cc1ccc(OCc2ccccc2)cc1)C1CCCC1 |
| 147 to 148 °C | COc1ccc(C2CC(=O)CCC2[N+](=O)[O-])cc1OC (configuration not stated) |
| 110 to 111 °C | CN(C)C1CSC(C#N)(c2ccc(Cl)cc2)SC1 (configuration not stated) |
| 215 to 217 °C | COc1cc(-c2ncn(-c3ccc(C(F)(F)F)cc3)c2-c2ccc(N(C)C)cc2)cc(OC)c1OC |
| 156 to 158 °C | CC(Nc1ccc2c(n1)CC1CCCCC1C2=O)c1ccccc1 (configuration not stated) |
| 93 to 94 °C | COC(=O)c1ccc(O)c(C(=O)OC)c1 |
| 144 to 147 °C | CCOC1=NS(=O)(=O)C(C(=O)OCc2ccccc2)=C1N |
| 181 to 182 °C | COc1nc2cc(Cl)c(C)c(N)c2nc1OC |
| 245 to 247 °C | COc1cc2c(cc1-c1ccccc1F)NC(=O)CC(c1cccc(C#N)c1)=N2 |
| 54 to 57 °C | C=Cc1ccc2c(n1)COC(c1ccccc1)O2 (configuration not stated) |
| 152 to 153 °C | CC(=O)NC12CC3(C)CC(C)(CC(CO)(C3)C1)C2 |
| 157 °C | COC(=O)c1ccc(C(=N)NC(=O)OC(C)(C)C)cc1 |
| 163 to 164 °C | CSc1ccc(CC2C(C)=C(CCN(O)C(N)=O)c3ccccc32)cc1 (configuration not stated) |
| 120 to 122 °C | COc1ccc(NC(=O)c2csc(Br)c2OC)cc1N1CCN(C)CC1 |
| 218 to 219 °C | Cc1cc2c(-c3ccccc3Cl)c(NC(=O)Nc3ccccc3)c(=O)n(C)c2cc1C |
| 69 to 71 °C | COc1ccccc1N1CCN(CCNC(=O)CCN2CCC(c3c[nH]c4cc(Cl)ccc34)CC2)CC1 |
| 112 to 116 °C | COc1ccccc1C(O)c1cc(Br)cc(Br)c1 (configuration not stated) |
| 145 to 147 °C | Cc1c(-c2ccccc2)oc2c(CO)cccc2c1=O |
| 267 to 268 °C | OCC1OC(c2c(Cl)c(Cl)cc3nc(Cl)cn23)C(O)C1O (configuration not stated) |
| 168 to 172 °C | CS(=O)(=O)Nc1ccc(OCCN2CCC(C(=O)c3ccc(NS(C)(=O)=O)cc3)CC2)cc1 |
| 117 to 121 °C | CC(NC(=S)N1CCc2c([nH]c3ccccc23)C1c1ccc2c(c1)OCO2)c1ccccc1 (configuration not stated) |
| 130 to 131 °C | O=C(NCc1ncc(O)c2ccccc12)c1ccccc1 |
